These are literature values, as cited in US20030232784A1, “Hyaluronic acid-associated superoxide dismutase mimics and their use in the treatment of joint pain” (priority 2002, published 2003).

This data set deals with patients with active classical rheumatoid arthritis.

Take “Orgotein®: a bovine SOD with a Cu/Zn catalytic site”: the “effect on rheumatoid arthritis symptoms” value (intraarticular injection, patients with active classical rheumatoid arthritis) is reported as “ameliorated a number of symptoms”. Further, where the note is “reason for removal from the market”, the immunogenicity entry was “development of immune responses against the bovine enzyme”.
